Data published in ChEMBL document CHEMBL5150037, “Synthesis and in vitro biological evaluation of 3-ethyl-1,5-naphthyridin-2(1H)-one derivatives as potent PARP-1 selective inhibitors and PARP-1 DNA trappers” (Bioorg Med Chem Lett, 2022).

Legend:
[1] = molecular target: T1, Poly [ADP-ribose] polymerase 2 (Homo sapiens, UniProt Q9UGN5); test: Inhibition of PARP-2 (unknown origin) binding to DNA assessed as DNA trapping activity
[2] = molecular target: T2, Poly [ADP-ribose] polymerase 1 (Homo sapiens, UniProt P09874); test: Inhibition of PARP-1 (unknown origin)
[3] = test system: DLD-1; test: Antiproliferative activity against human DLD-1 cells harbouring wild type BRCA assessed as inhibition of cell growth; type: functional, cell-based
[4] = molecular target: T2, Poly [ADP-ribose] polymerase 1; test: Inhibition of PARP-1 (unknown origin) binding to DNA assessed as DNA trapping activity
[5] = test system: DLD-1; test: Antiproliferative activity against human DLD-1 cells harbouring BRCA-2 mutant assessed as inhibition of cell growth; type: functional, cell-based
[6] = molecular target: T1, Poly [ADP-ribose] polymerase 2; test: Inhibition of PARP-2 (unknown origin)

T1 sequence (Q9UGN5 whole entry): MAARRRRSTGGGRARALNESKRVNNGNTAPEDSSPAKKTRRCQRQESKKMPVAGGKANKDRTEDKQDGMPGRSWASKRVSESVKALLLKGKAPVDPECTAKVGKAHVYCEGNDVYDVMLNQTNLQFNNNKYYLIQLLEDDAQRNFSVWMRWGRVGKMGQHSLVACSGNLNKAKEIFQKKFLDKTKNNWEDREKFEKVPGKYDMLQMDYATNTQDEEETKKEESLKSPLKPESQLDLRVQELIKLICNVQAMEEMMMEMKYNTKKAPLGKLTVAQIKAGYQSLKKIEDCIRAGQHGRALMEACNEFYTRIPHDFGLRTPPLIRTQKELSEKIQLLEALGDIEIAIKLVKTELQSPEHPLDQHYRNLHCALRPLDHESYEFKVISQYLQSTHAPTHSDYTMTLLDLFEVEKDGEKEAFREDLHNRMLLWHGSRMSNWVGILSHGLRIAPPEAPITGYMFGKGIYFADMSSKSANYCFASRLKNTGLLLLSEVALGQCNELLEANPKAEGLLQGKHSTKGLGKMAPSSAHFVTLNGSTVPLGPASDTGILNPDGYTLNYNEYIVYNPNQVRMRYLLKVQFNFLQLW
T2 sequence (P09874 whole entry): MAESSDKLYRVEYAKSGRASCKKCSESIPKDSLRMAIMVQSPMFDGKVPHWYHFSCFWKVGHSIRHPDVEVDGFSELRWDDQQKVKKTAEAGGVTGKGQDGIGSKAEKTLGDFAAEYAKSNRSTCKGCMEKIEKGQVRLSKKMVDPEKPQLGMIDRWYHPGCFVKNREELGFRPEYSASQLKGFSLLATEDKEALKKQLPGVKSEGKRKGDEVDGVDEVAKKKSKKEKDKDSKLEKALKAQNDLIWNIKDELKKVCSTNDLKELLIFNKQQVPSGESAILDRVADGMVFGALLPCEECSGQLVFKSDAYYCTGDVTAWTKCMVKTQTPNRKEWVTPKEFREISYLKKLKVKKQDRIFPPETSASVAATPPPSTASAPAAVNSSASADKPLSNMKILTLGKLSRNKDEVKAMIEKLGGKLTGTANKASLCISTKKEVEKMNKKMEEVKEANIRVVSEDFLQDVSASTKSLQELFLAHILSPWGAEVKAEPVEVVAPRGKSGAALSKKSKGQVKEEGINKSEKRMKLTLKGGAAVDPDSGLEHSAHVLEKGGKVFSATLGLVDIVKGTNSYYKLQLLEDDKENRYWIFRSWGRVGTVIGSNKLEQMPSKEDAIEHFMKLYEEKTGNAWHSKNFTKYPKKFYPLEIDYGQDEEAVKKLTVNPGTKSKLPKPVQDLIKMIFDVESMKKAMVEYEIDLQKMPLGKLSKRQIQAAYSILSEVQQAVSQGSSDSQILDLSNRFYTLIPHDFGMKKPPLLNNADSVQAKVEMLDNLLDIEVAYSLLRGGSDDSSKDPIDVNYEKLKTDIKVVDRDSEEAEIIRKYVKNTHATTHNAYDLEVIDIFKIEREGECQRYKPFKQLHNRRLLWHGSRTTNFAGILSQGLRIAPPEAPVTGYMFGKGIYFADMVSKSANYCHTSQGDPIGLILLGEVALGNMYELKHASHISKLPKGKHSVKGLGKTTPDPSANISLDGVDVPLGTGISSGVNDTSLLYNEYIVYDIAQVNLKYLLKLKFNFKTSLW

Compound	IC50 [1] [nM]	IC50 [2] [nM]	IC50 [3] [nM]	IC50 [4] [nM]	IC50 [5] [nM]	IC50 [6] [nM]
CCc1cc2ncc(CN3CC(Nc4ccc(C(=O)NC)nc4)C3)cc2[nH]c1=O	12000	2.6	89200	4.76	25.6	192
CCc1cc2ncc(CN3CCN(c4ccc5cn[nH]c5n4)CC3)cc2[nH]c1=O	–	0.41	15600	4.78	395	–
CCc1cc2ncc(CN3CCc4nc(C(=O)NC)ccc4C3)cc2[nH]c1=O	4040	348	–	> 2500	–	485
CCc1cc2ncc(CN3CCC(Nc4ccc(C(=O)NC)nc4)C3)cc2[nH]c1=O (stereo not drawn)	9440	0.94	102000	1.61	43.8	68
CCc1cc2ncc(CN3C[C@@H]4C[C@H]3CN4c3ccc(C(=O)NC)nc3)cc2[nH]c1=O	37700	40	–	> 2500	–	340
CCc1cc2ncc(CN3CCN(c4ccc(C(=O)NC)c5nccn45)CC3)cc2[nH]c1=O	1560	0.63	8700	3.58	161	982
CCc1cc2ncc(CN3CC[C@@H](Nc4ccc(C(=O)NC)nc4)C3)cc2[nH]c1=O	3010	0.49	43800	1.85	4.82	133
CCc1cc2ncc(CN3CC4CN(c5ccc(C(=O)NC)nc5)CC4C3)cc2[nH]c1=O (stereo not drawn)	678	0.34	2980	8.14	46.8	18
CCc1cc2ncc(CN3CCN(c4ccc(C(C)(C)O)nc4)CC3)cc2[nH]c1=O	14000	397	–	> 2500	–	450
CCc1cc2ncc(CN3CC4(CCN(c5ccc(C(=O)NC)nc5)CC4)C3)cc2[nH]c1=O	–	12	–	158	–	–
CCc1cc2ncc(CN3CCN(c4ccc5[nH]ncc5n4)CC3)cc2[nH]c1=O	1170	0.78	–	380	–	23
CCc1cc2ncc(CN3CCN(c4ccc5nc(C(F)(F)F)[nH]c5n4)CC3)cc2[nH]c1=O	1400	2.6	–	244	–	60
CCc1cc2ncc(CN3CCN(c4cc5cccc(C(=O)NC)c5cn4)CC3)cc2[nH]c1=O	2980	14	–	1570	–	151
CCc1cc2ncc(CN3CCN(c4cnc5cn[nH]c5c4)CC3)cc2[nH]c1=O	210	0.9	–	231	–	5.2
CCc1cc2ncc(CN3CC4CC(C3)N4c3ccc(C(=O)NC)nc3)cc2[nH]c1=O	–	> 2500	–	> 2500	–	–
CCc1cc2ncc(CN3CCN(c4ccc(OC(F)F)nc4)CC3)cc2[nH]c1=O	6300	1	15200	4.51	66	154
CCc1cc2ncc(CN3CC4(C3)CN(c3ccc(C(=O)NC)nc3)C4)cc2[nH]c1=O	839	0.59	28100	2.97	164	9
CCc1cc2ncc(CN3CC[C@H](Nc4ccc(C(=O)NC)nc4)C3)cc2[nH]c1=O	4170	33	77100	1460	> 2500	137
CCc1cc2ncc(CN3CCN(c4ccc5oc(=O)[nH]c5c4)CC3)cc2[nH]c1=O	994	2	–	10.4	–	87
CCc1cc2ncc(CN3CCn4c(cnc4C(=O)NC)C3)cc2[nH]c1=O	2040	75	–	> 2500	–	20
CCc1cc2ncc(CN3CCN(c4cc5c(cn4)NC(=O)CC5)CC3)cc2[nH]c1=O	167	5.4	–	727	–	38
CCc1cc2ncc(CN3CCC(Nc4ccc(C(=O)NC)nc4)CC3)cc2[nH]c1=O	3050	3.4	–	259	–	40
CCc1cc2ncc(CN3CC4CCC(C3)N4c3ccc(C(=O)NC)nc3)cc2[nH]c1=O	–	41	–	> 2500	–	–
CCc1cc2ncc(CN3CCN(c4ccc5cc[nH]c5n4)CC3)cc2[nH]c1=O	114	1.3	–	64	–	21
CCc1cc2ncc(CN3CCc4cc(/C=C/C(=O)NC)ccc4C3)cc2[nH]c1=O	1160	0.4	33000	11.2	10.8	41.5
CCc1cc2ncc(CN3CCN(c4ccc(C(N)C(F)(F)F)nc4)CC3)cc2[nH]c1=O (stereo not drawn)	11800	–	–	> 2500	–	–
O=C(c1cc(Cc2n[nH]c(=O)c3ccccc23)ccc1F)N1CCN(C(=O)C2CC2)CC1 [OLAPARIB]	–	–	23300	–	172	–
CCc1cc2ncc(CN3CCN(c4ccc(C(=O)NC)nc4)CC3)cc2[nH]c1=O [SARUPARIB]	–	–	12100	–	0.915	–
